Experiment [1] concerns male CD-1 mice. Conditions: mouse, in vivo.
For experiment [2], the system named is male C57Bl/6 mice. Description: Mouse formalin paw assay for inflammatory pain. The experiment is classed as in vivo. As to conditions: SC administration 30 min prior; morphine 5 mg/kg; compound 5 0.3, 1 or 3 mg/kg.
In experiment [3] the target is T1, human full-length recombinant serotonin 5-HT2A receptors (Homo sapiens, UniProt P28223).
T1 construct: human full-length recombinant serotonin 5-HT2A receptors expressed in HEK-293E cells
Description: biochemical. In kind it is binding. Conditions: for inhibition at 0.1 µM: read-out: 5-HT2A % inhibition.

Experiment [4] has as its target human recombinant dopamine D2 short receptor (Homo sapiens, UniProt P14416). The experiment in a line: Dopamine D2 receptor binding, [3H]7-OH-DPAT displacement. As to conditions: for inhibition at 0.1 µM: read-out: D2 % inhibition.
Experiment [5] concerns the target T2, human recombinant 5-HT transporter (SERT) (Homo sapiens, UniProt P31645).
T2 construct: host or cells: CHO-S / SERT (h), cell membrane homogenates
Description: biochemical. The experiment is classed as binding. As to conditions: for inhibition at 0.2 µM: read-out: SERT % inhibition.

Experiment [6] concerns the target human recombinant dopamine D1 receptor (Homo sapiens, UniProt P21728). Description: Dopamine D1 receptor binding, [3H]SCH 23390 displacement. Conditions: for inhibition at 0.1 µM: read-out: D1 % inhibition.
The mark [7] stands for this setting: inhibition at 100 nM, NI = no inhibition.

Read-outs that look alike come from different tables or passages of the source.

The results in this text go back to paper PMC11181336, “Discovery of ITI-333, a Novel Orally Bioavailable Molecule Targeting Multiple Receptors for the Treatment of Pain and Other Disorders” (Journal of Medicinal Chemistry, 2024).

Usually Ki stands for a measure of affinity in units of concentration, obtained from inhibition or displacement. By inhibition is commonly meant the drop in the measured response relative to a control, in per cent.

human recombinant dopamine D2 short receptor, sequence (P14416 1-414 isoform P14416-2): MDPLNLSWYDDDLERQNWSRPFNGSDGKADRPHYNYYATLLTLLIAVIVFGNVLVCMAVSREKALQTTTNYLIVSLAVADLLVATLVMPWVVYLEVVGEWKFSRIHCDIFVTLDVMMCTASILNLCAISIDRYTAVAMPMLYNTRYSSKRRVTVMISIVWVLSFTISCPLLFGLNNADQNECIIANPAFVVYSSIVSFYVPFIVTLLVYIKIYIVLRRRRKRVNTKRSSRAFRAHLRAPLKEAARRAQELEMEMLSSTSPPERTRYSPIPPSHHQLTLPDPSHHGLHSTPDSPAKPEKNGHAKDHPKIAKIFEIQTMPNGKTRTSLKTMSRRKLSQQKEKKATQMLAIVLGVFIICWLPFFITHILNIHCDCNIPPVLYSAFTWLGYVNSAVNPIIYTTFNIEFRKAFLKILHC
T2 sequence (P31645 whole entry): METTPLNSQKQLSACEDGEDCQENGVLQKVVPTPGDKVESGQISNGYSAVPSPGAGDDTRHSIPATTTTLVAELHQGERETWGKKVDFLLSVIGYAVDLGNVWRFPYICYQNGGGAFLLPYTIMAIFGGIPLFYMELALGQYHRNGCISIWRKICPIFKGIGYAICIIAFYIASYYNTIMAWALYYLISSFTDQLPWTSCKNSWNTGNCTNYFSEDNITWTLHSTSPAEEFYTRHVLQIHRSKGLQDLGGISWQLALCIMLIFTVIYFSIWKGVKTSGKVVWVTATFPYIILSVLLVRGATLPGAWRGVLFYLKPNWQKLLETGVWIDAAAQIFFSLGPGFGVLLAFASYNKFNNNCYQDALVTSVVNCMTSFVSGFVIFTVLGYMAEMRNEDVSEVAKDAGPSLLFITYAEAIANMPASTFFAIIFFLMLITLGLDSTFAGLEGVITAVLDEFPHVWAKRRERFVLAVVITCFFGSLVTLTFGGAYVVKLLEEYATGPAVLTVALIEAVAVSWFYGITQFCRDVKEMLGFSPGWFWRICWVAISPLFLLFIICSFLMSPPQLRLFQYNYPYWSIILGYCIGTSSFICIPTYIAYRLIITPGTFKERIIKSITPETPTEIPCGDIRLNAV
T1 sequence (P28223 whole entry): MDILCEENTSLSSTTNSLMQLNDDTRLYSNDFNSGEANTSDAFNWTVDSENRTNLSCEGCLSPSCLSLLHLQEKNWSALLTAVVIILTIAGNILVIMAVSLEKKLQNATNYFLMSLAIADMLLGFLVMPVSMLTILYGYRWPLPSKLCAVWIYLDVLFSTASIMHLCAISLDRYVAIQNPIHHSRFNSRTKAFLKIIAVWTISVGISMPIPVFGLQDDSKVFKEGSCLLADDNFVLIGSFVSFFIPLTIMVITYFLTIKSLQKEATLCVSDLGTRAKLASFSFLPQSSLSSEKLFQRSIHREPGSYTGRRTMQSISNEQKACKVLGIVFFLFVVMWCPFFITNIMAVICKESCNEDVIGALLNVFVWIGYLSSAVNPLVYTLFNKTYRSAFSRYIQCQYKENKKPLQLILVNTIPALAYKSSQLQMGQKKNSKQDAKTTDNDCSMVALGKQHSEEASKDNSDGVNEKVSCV
human recombinant dopamine D1 receptor, sequence (P21728 whole entry): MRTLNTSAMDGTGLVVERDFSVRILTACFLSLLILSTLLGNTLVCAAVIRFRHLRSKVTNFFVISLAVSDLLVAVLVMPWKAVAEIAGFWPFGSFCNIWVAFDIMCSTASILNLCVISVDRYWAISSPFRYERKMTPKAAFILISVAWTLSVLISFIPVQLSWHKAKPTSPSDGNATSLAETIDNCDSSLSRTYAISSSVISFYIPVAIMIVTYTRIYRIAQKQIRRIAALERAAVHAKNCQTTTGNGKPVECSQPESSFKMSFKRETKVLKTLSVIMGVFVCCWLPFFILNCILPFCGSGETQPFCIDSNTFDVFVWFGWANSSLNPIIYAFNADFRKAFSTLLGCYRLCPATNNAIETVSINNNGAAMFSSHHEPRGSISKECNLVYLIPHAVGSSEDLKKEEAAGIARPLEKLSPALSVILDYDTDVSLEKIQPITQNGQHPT

With `CN1CC[C@]23c4c5ccc(O)c4O[C@H]2[C@@H](O)C=C[C@H]3[C@H]1C5` [morphine], in experiment [1], the “analgesic effect after pretreatment with naloxone” value is reported as “attenuated” and the “latency to tail flick compared to the vehicle” value is recorded as “significantly increased”. For the same molecule, in experiment [2], the “licking response to formalin injection” value is recorded as “significantly suppressed”.
As for `O=C1CN2c3c(cccc3[C@@H]3CN(CCCOc4ccc(F)c(F)c4)CC[C@@H]32)N1` [compound 39, (6bR,10aS)-8-(3-(3,4-Difluorophenoxy)propyl)-6b,7,8,9,10,10a-hexahydro-1H-pyrido[3′,4′:4,5]pyrrolo-[1,2,3-de]quinoxalin-2(3H)-one], in experiment [3], the “5-HT2A (Ki or (% Inhibition)): % inhibition” value is given as 16.1 (71%), the inhibition constant Ki worked out at 16.1 nM, the “fold reduction of affinity to 5-HT2A receptors” value was “approximately 6 fold” and the inhibition at 0.1 µM worked out at 71%. Also, in experiment [4], the “D2(Ki or (% Inhibition)): % inhibition” value is reported as 1620 (7%), the Ki was found to be 1620 nM and the inhibition at 0.1 µM came out at 7%. Also, in experiment [5], the Ki stood at 508 nM, the “SERT (Ki or (% Inhibition)): % inhibition” value is 508 (15%) and the inhibition at 0.2 µM was 15%. Further, in experiment [6], the “D1(Ki or (% Inhibition)): % inhibition” value is 232 (15%), the Ki turned out to be 232 nM and the inhibition at 0.1 µM came to 15%.
Turning to `O=C1CN2c3c(cccc3[C@@H]3CN(CCCOc4ccccc4)CC[C@@H]32)N1` [compound 23, (6bR,10aS)-8-(3-Phenoxypropyl)-6b,7,8,9,10,10a-hexahydro-1H-pyrido[3′,4′:4,5]-pyrrolo[1,2,3-de]quinoxalin-2(3H)-one], the Ki in experiment [3] was determined as 2.8 nM. For the same molecule, the inhibition at 0.1 µM in experiment [3] is 84%; in experiment [4], 34%; in experiment [6], 24%. Moreover, in experiment [5], the inhibition at 0.2 µM was determined as 8%.
As for `O=C1CN2c3c(cccc3[C@@H]3CN(CCCOc4ccc(F)cc4)CC[C@@H]32)N1` [compound 5, (6bR,10aS)-8-(3-(4-Fluorophenoxy)propyl)-6b,7,8,9,10,10a-hexahydro-1H-pyrido[3′,4′:4,5]pyrrolo[1,2,3-de]quinoxalin-2(3H)-one], the “licking response to formalin injection” value in experiment [2] is “dose-dependently reduced”. In experiment [6], the “D1(Ki or (% Inhibition)): % inhibition” value is recorded as 50 (44%) and the inhibition at 0.1 µM is 44%.
`O=C1CN2c3c(cccc3[C@@H]3CN(CCCS(=O)(=O)c4ccc(F)cc4)CC[C@@H]32)N1` [compound 46, (6bR,10aS)-8-(3-((4-Fluorophenyl)sulfonyl)propyl)-6b,7,8,9,10,10a-hexahydro-1H-pyrido[3′,4′:4,5]-pyrrolo-[1,2,3-de]quinoxalin-2(3H)-one]: the inhibition at 0.1 µM in experiment [3] is 33%; in experiment [4] (setting [7]) it was less than 0%; in experiment [6] (setting [7]) it was less than 0%. Also, the inhibition at 0.2 µM in experiment [5] is less than 0%.
For `O=C1CCN2c3c(cccc3[C@@H]3CN(CCCOc4ccc(F)cc4)CC[C@@H]32)N1` [compound 53, (8aS,12aR)-11-(3-(4-Fluorophenoxy)propyl)-6,7,8a,9,10,11,12,12a-octahydro-[1,4]diazepino[3,2,1-hi]pyrido[4,3-b]indol-5(4H)-one], the inhibition at 0.1 µM was determined as 93% in experiment [3], 24% in experiment [4] (setting [7]) and 14% in experiment [6] (setting [7]). For the same molecule, the inhibition at 0.2 µM in experiment [5] came to 29%.
On to `Cc1cc(F)cc(C)c1OCCCN1CC[C@H]2[C@@H](C1)c1cccc3c1N2CC(=O)N3` [compound 43, (6bR,10aS)-8-(3-(4-Fluoro-2,6-dimethylphenoxy)propyl)-6b,7,8,9,10,10a-hexahydro-1H-pyrido[3′,4′:4,5]-pyrrolo[1,2,3-de]quinoxalin-2(3H)-one], for which the inhibition at 0.1 µM in experiment [3] is 40%; in experiment [4], less than 0%; in experiment [6], less than 0%. The inhibition at 0.2 µM in experiment [5] was determined as 34%.
